Experimental data as given in ChEMBL document CHEMBL1201862, “PubChem BioAssay data set” (2004).
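Test compounds were applied to cells in 96-well plates for 48 hours at 5 doses. Abbreviation: GI50, concentration required for 50% inhibition of growth.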 The source made the active and inactive calls. Cut-off read from the data, not from the text of the source: active = GI50 up to about 1.1 µM and inactive = higher.

Tests used:
Assay in all cases: NCI-60 cell line screen, 48 h
LXFL 529 = tested on: LXFL 529
TK-10 = tested on: TK-10
DU-145 = tested on: DU-145
Hs-578T = tested on: Hs-578T
MDA-MB-435 = tested on: MDA-MB-435
MDA-N = tested on: MDA-N
PC-3 = tested on: PC-3

Measured: GI50

Cc1ccccc1NC(=O)C(=O)C(C1OC(=O)c2ccccc21)[N+](=O)[O-] (configuration not stated)
inactive: LXFL 529 > 100 µM | TK-10 > 100 µM

COc1ccccc1-c1cc(O)c2c(C)ccnc2n1
inactive: DU-145 41.2 µM | Hs-578T 11.5 µM | TK-10 > 100 µM

O=C1OCc2cccc3c2-c2c1cccc2C(=O)OC3
inactive: TK-10 > 100 µM

COC(=O)N1CC2C3C4CC(C(c5ccccc5)=C4c4ccccc4)C3C21 (configuration not stated)
inactive: DU-145 14.7 µM | MDA-MB-435 15.2 µM | MDA-N 20.4 µM | PC-3 10 µM | TK-10 15.8 µM

BrC1=CN2C[n+]3cc(Br)c4ccccc4c3N=C2c2ccccc21
inactive: DU-145 16.6 µM | Hs-578T 22.1 µM | MDA-MB-435 6.18 µM | MDA-N 6.81 µM | PC-3 13.6 µM | TK-10 26.8 µM
